Measurements as given in patent US7964725B2, “Heteroarylbenzamide derivatives for use in the treatment of diabetes” (AstraZeneca AB, priority 2006, dated 2011).

How the values were obtained:
[1] = target: T1, recombinant human pancreatic GLK (Homo sapiens, UniProt P35557); experiment: Enzymatic activity: activation of glucokinase in the absence of GLKRP; assay type: biochemical; details: G-6-P dehydrogenase NADP/NADPH coupled assay, OD 340 nm
T1 construct: 6-His (N); made in house; host or cells: E. coli BL21
T1 sequence (P35557 1-465): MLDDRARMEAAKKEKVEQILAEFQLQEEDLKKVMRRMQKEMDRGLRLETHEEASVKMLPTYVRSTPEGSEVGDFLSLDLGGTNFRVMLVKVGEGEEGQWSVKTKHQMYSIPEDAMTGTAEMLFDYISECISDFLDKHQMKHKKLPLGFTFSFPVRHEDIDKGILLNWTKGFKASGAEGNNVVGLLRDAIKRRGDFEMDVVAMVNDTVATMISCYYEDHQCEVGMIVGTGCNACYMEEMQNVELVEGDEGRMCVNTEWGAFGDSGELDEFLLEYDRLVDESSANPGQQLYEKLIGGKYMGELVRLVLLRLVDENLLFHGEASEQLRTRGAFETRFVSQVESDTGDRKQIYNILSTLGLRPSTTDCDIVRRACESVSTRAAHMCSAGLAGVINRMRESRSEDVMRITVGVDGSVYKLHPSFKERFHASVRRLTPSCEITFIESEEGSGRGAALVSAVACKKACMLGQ
Protocol: Enzymatic activity of recombinant human pancreatic GLK may be measured by incubating GLK, ATP and glucose. The rate of product formation may be determined by coupling the assay to a G-6-P dehydrogenase, NADP/NADPH system and measuring the linear increase with time of optical density at 340 nm Brocklehurst et al (Diabetes 2004, 53, 535-541). Activation of GLK by compounds can be assessed using this assay in the presence or absence of GLKRP as described in Brocklehurst et al (Diabetes 2004, 53, 535-541).
Human GLK and GLKRP cDNA was obtained by PCR from human pancreatic and hepatic mRNA respectively, using established techniques described in Sambrook J, Fritsch E F & Maniatis T, 1989. PCR primers were designed according to the GLK and GLKRP cDNA sequences shown in Tanizawa et al., Proc Natl Acad Sci 1991 August 15; 88(16):7294-7 and Warner et al., Mamm Genome. 1995 August; 6(8):532-6.
GLK was expressed from the vector pTB375NBSE in E. coli BL21 cells, producing a recombinant protein containing a 6-His tag immediately adjacent to the N-terminal methionine. Alternatively, another suitable vector is pET21(+)DNA, Novagen, Cat number 697703. The 6-His tag was used to allow purification of the recombinant protein on a column packed with nickel-nitrilotriacetic acid agarose purchased from Qiagen (cat no 30250).

SMILES	EC50 [1] [nM]	melting point
Cc1cnc(NC(=O)c2cc(Oc3ccc(S(C)(=O)=O)nc3)cc(O[C@@H](C)COC(F)F)c2)cn1 [Example 1, 3-[(2S)-1-(difluoromethoxy)propan-2-yl]oxy-N-(5-methylpyrazin-2-yl)-5-(6-methylsulfonylpyridin-3-yl)oxy-benzamide]	69	
C[C@@H](COC(F)F)Oc1cc(Oc2ccc(S(C)(=O)=O)nc2)cc(C(=O)Nc2ccn(C)n2)c1 [Example 6, 3-[(2S)-1-(difluoromethoxy)propan-2-yl]oxy-N-(1-methylpyrazol-3-yl)-5-(6-methylsulfonylpyridin-3-yl)oxy-benzamide]	77	
C[C@@H](COC(F)F)Oc1cc(Oc2ccc(S(C)(=O)=O)nc2)cc(C(=O)Nc2cc[nH]n2)c1 [Example 4, 3-[(2S)-1-(difluoromethoxy)propan-2-yl]oxy-5-(6-methylsulfonylpyridin-3-yl)oxy-N-(1H-pyrazol-3-yl)benzamide]	33	

Next, values leading:

EC50 [1] [nM]	melting point	SMILES
55	~ 75 °C	Cc1cnc(NC(=O)c2cc(Oc3cnc(C(=O)N(C)C)cn3)cc(O[C@@H](C)COC(F)F)c2)cn1 [Example 2, 5-[3-[(2S)-1-(difluoromethoxy)propan-2-yl]oxy-5-[(5-methylpyrazin-2-yl)carbamoyl]phenoxy]-N,N-dimethyl-pyrazine-2-carboxamide]
65		C[C@@H](COC(F)F)Oc1cc(Oc2cnc(C(=O)N(C)C)cn2)cc(C(=O)Nc2cc[nH]n2)c1 [Example 3, 5-[3-[(2S)-1-(Difluoromethoxy)propan-2-yl]oxy-5-(1H-pyrazol-3-ylcarbamoyl)phenoxy]-N,N-dimethyl-pyrazine-2-carboxamide]
79		C[C@@H](COC(F)F)Oc1cc(Oc2cnc(C(=O)N(C)C)cn2)cc(C(=O)Nc2ccn(C)n2)c1 [Example 5, 5-[3-[(2S)-1-(difluoromethoxy)propan-2-yl]oxy-5-[(1-methylpyrazol-3-yl)carbamoyl]phenoxy]-N,N-dimethyl-pyrazine-2-carboxamide]
